Data reported in publication PMC8892231 (EMBO Reports, 2021).

Legend:
qC10ORF99 promoter = assay: Luciferase reporter assay, Japanese quail C10ORF99 promoter in HEK293 cells; type: cell-based; details: promoter-pGL4.14 (300 ng), sodium propionate or sodium acetate in serum-free medium for 12 h, normalized to β-galactosidase, vs parental PGL4.14 plasmid, n = 3
cGPR15‐P246K = assay: Intracellular calcium assay, reverse mutant cGPR15‐P246K; type: cell-based, Lepisosteus oculatus/Scleropages formosus; details: CHO cells, Fluo-4 calcium assay; peptide 10 nM
cGPR15‐A283L = assay: Intracellular calcium assay, reverse mutant cGPR15‐A283L; type: cell-based, Latimeria chalumnae; details: CHO cells, Fluo-4 calcium assay; peptide 10 nM

activation of the mutant receptor based on Ca2+ measurements (cGPR15‐P246K)	activation of the mutant receptor based on Ca2+ measurements (cGPR15‐A283L)	Molecule	luciferase activity of the promoter construct (qC10ORF99 promoter)
–	–	CC(=O)O [acetate]	significantly increased
–	–	CCC(=O)O [propionate]	significantly increased
activated	activated	AAPSPLFVPGPLPQL [qC10ORF99]	–
